From US9983195B2, “Engineered three-dimensional breast tissue, adipose tissue, and tumor disease model” (ORGANOVO, INC., priority 2014, dated 2018)

Experiments:
Assay type in all cases: cell-based, human
[1] = tested on: bioprinted breast cancer constructs (MCF7/HUVEC cancer node surrounded by NHMF, HUVEC, SPA stroma); experiment: Construct viability after drug treatment by alamarBlue assay; details: 10 μM compound for 3 days, followed by 100 μM compound for 24 hours; FIG. 14
Excerpt: Bioprinted breast cancer constructs were generated in which a cancer cell node, composed of MCF7 breast cancer cells and human umbilical vein endothelial (HUVEC) cells, is surrounded on all sides by a stromal compartment composed of normal human mammary fibroblasts (NHMF), HUVEC cells, and subcutaneous preadipocytes (SPA). Bio-inks were produced by combining cells with a reversibly cross-linkable, alginate-containing hydrogel (Novogel® 3.0 System; Organovo, Calif.). The stromal compartment of the constructs was comprised of 65% NHMF, 25% HUVEC, and 10% SPA (partially pre-differentiated). The cancer compartment of the constructs was comprised of 75% MCF7, 25% HUVEC. For each compartment, cells were mixed together at the indicated ratio and resuspended in Novogel® 3.0 at a concentration of 150 million cells/ml. Constructs were printed as 3 layered structures with a dimension of 3 mm×3 mm×0.75 mm. Immediately following bioprinting, constructs were stabilized via crosslinking. After 2 minutes, the calcium crosslinking solution was aspirated and replaced with culture media. After 2 days in culture, constructs were treated overnight with enzyme dissolved in culture media to remove the Novogel® 3.0. […] Constructs were assessed for metabolic activity by alamarBlue assay (Life Technologies, Carlsbad, Calif.) or CellTiter Glo assay (Promega, Madison, Wis.). […]

[2] = tested on: bioprinted breast cancer tumor models (stromal and cancer compartments); experiment: Apoptosis by TUNEL staining with CK8 and TE7 markers in bioprinted breast cancer tumor models; details: 100 μM cisplatin for 4 days; FIG. 22
Excerpt: (§1) The breast cancer tumor models included a nodule of human breast cancer cells surrounded by a physiologically-relevant stromal layer, which included human adipocytes differentiated from human mesenchymal stem cells, human mammary fibroblasts, and human endothelial cells. The adipocytes were derived from mesenchymal stem cells which were isolated an exposed to an adipocyte differentiation signal prior to preparation of the bio-ink and bioprinting.
Referring to FIG. 22, bioprinted tissues were treated with vehicle (A-C) or 100 μM cisplatin (D-F) for 4 days. The first (A and D) and second (B and E) columns depict tissues assessed for apoptosis by TUNEL staining (green) and markers for cancer cells (CK8, red). The last (C and F) column depicts tissues assessed for apoptosis by TUNEL staining (green) and markers for fibroblasts (TE7, red).

[3] = tested on: breast cancer cells in two-dimensional culture and bioprinted breast cancer tumor models; experiment: Viability by ATP luciferase assay, two-dimensional breast cancer cell culture versus bioprinted breast cancer tumor models; details: 10 μM tamoxifen for 48 hours, FIG. 20
Excerpt: as §1
The breast cancer tumor models were exposed to chemotherapy compounds in order to access drug response. Referring to FIG. 20, breast cancer cells grown in two-dimensional cell culture (A) and the bioprinted breast cancer tumor models (B) were treated with media alone, DMSO, or 10 μM tamoxifen for 48 hours and assessed for viability by ATP luciferase assay. For each graph, * indicates p<0.05 for treatment compared to control.

N.N.[Cl][Pt][Cl] [Cisplatin, cisplatin]
construct viability (alamarBlue) relative to media or vehicle controls [1]: decreased construct viability | apoptosis (TUNEL) in stromal versus cancer compartment [2]: induces greater apoptosis in the stromal compartment of bioprinted tissues than in the cancer compartment

CC(=O)O[C@H]1C(=O)[C@@]2(C)[C@H]([C@H](OC(=O)c3ccccc3)[C@]3(O)C[C@H](OC(=O)[C@H](O)[C@@H](NC(=O)c4ccccc4)c4ccccc4)C(C)=C1C3(C)C)[C@]1(OC(C)=O)CO[C@@H]1C[C@@H]2O [paclitaxel]
construct viability (alamarBlue) relative to media or vehicle controls [1]: decreased construct viability

CC/C(=C(\c1ccccc1)c1ccc(OCCN(C)C)cc1)c1ccccc1 [tamoxifen]
susceptibility to tamoxifen-induced toxicity, two-dimensional cells versus three-dimensional bioprinted constructs [3]: Isolated two-dimensional cancer cells were more susceptible to tamoxifen-induced toxicity than cells incorporated into three-dimensional bioprinted constructs
